Consider 13 compounds from patent US9403830B2, “Inhibitors of leukotriene production” (Boehringer Ingelheim International GmbH, priority 2012, dated 2016).

Each structure is given as a SMILES string.

Experiment [1] concerns LTB4 synthesis in human whole blood. Put plainly: human whole blood (HWB) assay, inhibition of LTB4 production. The experiment is classed as cell-based. Particulars: heparinized human whole blood, calcimycin 20 μM stimulation, plasma LTB4. The method, boiled down:
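Heparinized human whole blood preincubated with compound 15 min at 37 °C, then stimulated with 20 μM (final) calcimycin for 30 min at 37 °C. Plasma LTB4 measured by antibody-based HTRF; IC50 reported.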

Experiment [2] concerns the target T1, human LTA4 hydrolase (Homo sapiens, UniProt P09960).
T1 sequence (P09960 1-611): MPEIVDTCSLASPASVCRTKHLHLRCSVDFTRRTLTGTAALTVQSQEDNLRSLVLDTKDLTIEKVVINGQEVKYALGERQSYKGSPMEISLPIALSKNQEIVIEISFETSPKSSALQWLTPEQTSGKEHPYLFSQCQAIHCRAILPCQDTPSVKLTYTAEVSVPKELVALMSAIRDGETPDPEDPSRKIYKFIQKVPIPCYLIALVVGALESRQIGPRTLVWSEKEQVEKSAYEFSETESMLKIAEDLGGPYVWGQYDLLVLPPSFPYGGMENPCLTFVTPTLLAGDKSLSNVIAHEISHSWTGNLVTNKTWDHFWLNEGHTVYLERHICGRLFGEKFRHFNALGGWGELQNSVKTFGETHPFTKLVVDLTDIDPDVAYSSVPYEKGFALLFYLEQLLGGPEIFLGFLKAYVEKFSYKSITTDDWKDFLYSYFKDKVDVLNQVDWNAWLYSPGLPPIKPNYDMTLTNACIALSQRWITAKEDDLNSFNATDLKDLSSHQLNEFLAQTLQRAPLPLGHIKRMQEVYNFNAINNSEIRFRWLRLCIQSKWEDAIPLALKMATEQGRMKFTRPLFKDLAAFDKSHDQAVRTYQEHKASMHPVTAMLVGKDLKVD
As to the kind of experiment: LTA4H Enzyme assay (peptidase, Arg-AMC cleavage). The experiment is classed as biochemical. Particulars: LTA4H enzyme 1 nM, Arg-AMC substrate 50 μM, room temperature 1 h, fluorescence 380/460 nm. The method, boiled down: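 Human LTA4H (1 nM final) incubated with compound and Arg-AMC (50 μM final) in 50 mM Tris-HCl pH 7.5, 100 mM KCl, 0.5% BSA, 1 h at room temperature. Product read as AMC fluorescence (ex 380/em 460 nm); IC50 reported.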

A word on the IC50: it is the concentration needed to halve the response being measured. With `c1cc(-c2ccc(Oc3ccc4nc(CNCCC5CCOCC5)ccc4c3)nc2)[nH]n1` [Example 214, {6-[5-(2H-Pyrazol-3-yl)-pyridin-2-yloxy]-quinolin-2-ylmethyl}-[2-(tetrahydro-pyran-4-yl)-ethyl]-amine], the IC50 in experiment [1] was 400 nM; in experiment [2], 2.5 nM.

On to `c1ccc(OC2CCN(Cc3ccc4cc(Oc5ccc(-c6ccn[nH]6)cn5)ccc4n3)CC2)nc1` [Example 215, 6-[5-(2H-Pyrazol-3-yl)-pyridin-2-yloxy]-2-[4-(pyridin-2-yloxy)-piperidin-1-ylmethyl]-quinoline], for which the figures for the 50% inhibitory concentration (IC50) in experiment [1] and in experiment [2] were 680 nM and 5 nM, respectively.

As to `OC1CN(Cc2ccc3c(ccn3Cc3ccc(-c4ccn[nH]4)cc3)c2)C1` [Example 216, 1-{1-[4-(2H-Pyrazol-3-yl)-benzyl]-1H-indol-5-ylmethyl}-azetidin-3-ol], the half-maximal inhibitory concentration (IC50) in experiment [1] is 110 nM; in experiment [2], 0.2 nM.

`c1cc(-c2ccc(Oc3ccc4nn(CCN5CCCC5)cc4c3)cc2)[nH]n1` [Example 217, 5-[4-(2H-Pyrazol-3-yl)-phenoxy]-2-(2-pyrrolidin-1-yl-ethyl)-2H-indazole]: the IC50 was 81 nM in experiment [1] and 0.12 nM in experiment [2].

Regarding `c1cc(-c2ccc(Oc3ccc4c(c3)OC(CN3CCCC3)C4)cc2)[nH]n1` (centres unmarked) [Example 218, 5-[4-(2-Pyrrolidin-1-ylmethyl-2,3-dihydro-benzofuran-6-yloxy)-phenyl]-1H-pyrazole], the IC50 in experiment [1] came out at 110 nM; in experiment [2], 0.097 nM.

Turning to `CC(=O)NC1CCN(CC2Cc3ccc(Oc4ccc(-c5ccn[nH]5)cc4)cc3O2)CC1` (centres unmarked) [Example 219, N-(1-[6-[4-(2H-Pyrazol-3-yl)-phenoxy]-2,3-dihydro-benzofuran-2-ylmethyl]-piperidin-4-yl)-acetamide], the results for the concentration for half-maximal inhibition (IC50) in experiment [1] and in experiment [2] were 110 nM and 0.22 nM, respectively.

As to `c1cc(-c2cnc(Oc3ccc4nc(CN5CCCC5)ccc4c3)nc2)[nH]n1` [Example 220, 6-[5-(2H-Pyrazol-3-yl)-pyrimidin-2-yloxy]-2-pyrrolidin-1-ylmethyl-quinoline], the values for the IC50 in experiment [1] and in experiment [2] were 160 nM and 1.7 nM, respectively.

`CC(=O)N1CCN(Cc2cc3ccc(Oc4ccc(-c5ccn[nH]5)cn4)cc3[nH]2)CC1` [Example 221, 1-(4-{6-[5-(2H-Pyrazol-3-yl)-pyridin-2-yloxy]-1H-indol-2-ylmethyl}-piperazin-1-yl)-ethanone]: the IC50 in experiment [1] came out at 170 nM; in experiment [2], 0.27 nM.

In the case of `CC(=O)N1CCN(Cc2cc3cc(Oc4ccc(-c5ccn[nH]5)cn4)ccc3[nH]2)CC1` [Example 222, 1-(4-{5-[5-(2H-Pyrazol-3-yl)-pyridin-2-yloxy]-1H-indol-2-ylmethyl}-piperazin-1-yl)-ethanone], the half-maximal inhibitory concentration (IC50) in experiment [1] was 230 nM; in experiment [2], 0.73 nM.

Regarding `CC(=O)N1CCN(Cc2cc3cc(Oc4ccc(-c5ccn[nH]5)cn4)ccc3cn2)CC1` [Example 223, 1-(4-{6-[5-(2H-Pyrazol-3-yl)-pyridin-2-yloxy]-isoquinolin-3-ylmethyl}-piperazin-1-yl)-ethanone], the half-inhibitory concentration (IC50) worked out at 230 nM in experiment [1] and 0.94 nM in experiment [2].

As for `CC(=O)N1CCN(CCn2ccc3cc(Oc4ccc(-c5ccn[nH]5)cn4)ccc32)CC1` [Example 224, 1-[4-(2-{5-[5-(2H-Pyrazol-3-yl)-pyridin-2-yloxy]-indol-1-yl}-ethyl)-piperazin-1-yl]-ethanone], the half-inhibitory concentration (IC50) was found to be 540 nM in experiment [1] and 2.3 nM in experiment [2].

Regarding `c1cc(-c2ccc(Oc3ccc4[nH]c(CN5CCC(CN6CCOCC6)CC5)nc4c3)cc2)[nH]n1` [Example 225, 2-(4-Morpholin-4-ylmethyl-piperidin-1-ylmethyl)-5-[4-(2H-pyrazol-3-yl)-phenoxy]-1H-benzoimidazole], the IC50 in experiment [1] was found to be 130 nM; in experiment [2], 0.13 nM.

On to `CO[C@H]1CCN(Cc2nc3cc(Oc4ccc(-c5ccn[nH]5)cc4)ccc3[nH]2)C1` [Example 226, 2-((S)-3-Methoxy-pyrrolidin-1-ylmethyl)-5-[4-(2H-pyrazol-3-yl)-phenoxy]-1H-benzoimidazole], for which the 50% inhibitory concentration (IC50) in experiment [1] worked out at 170 nM; in experiment [2], 0.3 nM.
